Values quoted from earlier work, collected in patent US11478471B2, “Methods and compositions for treating diabetes, metabolic syndrome and other conditions” (priority 2005, dated 2022).
Read-outs that look alike come from different tables or passages of the source.

Legend:
[1] = cited from earlier work; for AUC 0-12 / Cmax / T ½: humans
[2] = test system: P450 4A; details: read-out: IC50, lauric acid hydroxylase (4A); Rotstein et al. 1992; cited from earlier work
[3] = following fifth 200 mg dose of racemic ketoconazole (every twelve hours)
[4] = following first 200 mg dose of racemic ketoconazole
[5] = normal volunteers, 200 mg dose of the racemic mixture

## CC(=O)N1CCN(c2ccc(OC[C@@H]3CO[C@@](Cn4ccnc4)(c4ccc(Cl)cc4Cl)O3)cc2)CC1 [DIO-902, 2S,4R cis-1-acetyl-4-[4-[[2-(2,4-dichlorophenyl)-2-(1H-imidazol-1-ylmethyl)-1,3-dioxolan-4-yl]methoxyl]phenyl]piperazine]
[1]; [3]
  AUC 0-12: 538 ± 74 µg·min/mL
  Cmax: 1530 ± 190 ng/mL
  T ½: 3.62 ± 0.5 h
[1]; [4]
  AUC 0-12: 302 ± 38 µg·min/mL
  Cmax: 1060 ± 130 ng/mL
  T ½: 2.22 ± 0.233 h
[1]; [5]
  maximum plasma concentration: approximately 3.6 μg/mL
  time of maximum plasma concentration: 2 h
[2]
  IC50: > 100 µM
